Where a SMILES comes first, the peptide text is derived from it.
System: oral bacteria
Assay: pH of glucose solution incubated with oral bacteria (salivary sediment) and test substance
Assay type: cell-based
Conditions: for pH rising to (pH rise after the drop) / pH drop to (lowest pH reached): salivary sediment 16.7% (v/v), peptide 3.3 mM; for pH rising to (pH rise after the drop) / pH drop to (lowest pH reached) / pH: glucose 2.8 mM; for pH rising to (pH rise after the drop): measured through the fourth hour; for pH drop to (lowest pH reached): pH starts slightly above 7; for pH: substance 3.3 mM final, 37° C.
Protocol: Experiments were performed in vitro using supernatant saliva. The saliva was obtained from random donors whose salivary secretions were paraffin block stimulated. The saliva donations were pooled before and after sediment removal.
Four sets of three 10×75 mm test tubes were provided with 0.2 ml of 8.4 mM (millimolar) of aqueous glucose solution. Set I was provided with 0.2 ml of pooled supernatant saliva. Set II was provided with 0.2 ml of 9.9 mM of the peptide glycine-glycine-arginine. Set III was provided with 0.2 ml of 9.9 mM arginine. Set IV was provided with 0.2 ml of distilled water. Sequentially 0.2 ml of a 50:50 aqueous suspension of oral bacteria was added to each test tube. The concentration of the peptide in the combined composition was 3.3 mM. The prepared test tubes were kept at 37° C. in a water bath. pH readings were taken at 0 time when the bacteria were added and at 15, 30, 45, 60, 90, 120, 180 and 240 minutes.
The tests were carried out under the same conditions as Sets I-IV. The salivary sediment was present in an amount of 16.7% (v/v), glucose 2.8 mM and the peptide 3.3 mM in the final composition.
Duplicate runs without peptide were run parallel to the others as a double check. […] Measurement continues through the fourth hour.

[1] = time 0 minutes (bacteria added)

Row | Structure (SMILES) | pH rising to (pH rise after the drop) | pH drop to (lowest pH reached) | pH [1] | pH (time 15 minutes) | pH (time 30 minutes) | pH (time 45 minutes) | pH (time 60 minutes) | pH (time 90 minutes) | pH (time 120 minutes) | pH (time 180 minutes) | pH (time 240 minutes) | effectiveness as pH rise factor (synthesized peptide)
1 | N=C(N)NCCC[C@H](N)C(=O)O.NCC(=O)O.NCC(=O)O [Gly--Gly--Arg, glycine-glycine-arginine] | 7.5 | 5.5 | 7.4 | 6.8 | 6.6 | 6.4 | 6.6 | 6.6 | 6.7 | 7.2 | 7.6 | –
2 | N=C(N)NCCC[C@H](NC(=O)[C@H](CCCCN)NC(=O)CNC(=O)CN)C(=O)O [Gly--Gly--Lys--Arg, H-glycine-glycine-lysine-arginine-OH] (H-GGKR-OH) | 8.4 | 6.4 | – | – | – | – | – | – | – | – | – | proven effective
3 | N=C(N)NCCC[C@H](N)C(=O)O [Set III, arginine, reference compound] | – | – | 7.3 | 5.8 | 5.4 | 5.2 | 4.9 | 5.0 | 5.0 | 5.3 | 5.8 | –

From USRE31181E, “Means and method for improving natural defenses against caries” (priority 1980, dated 1983)
